Where a SMILES comes first, the peptide text is derived from it. Bridges are numbered along the chain shown (N, C = ends). Where no end group is shown, it is not given here. [ ]: non-standard residue; d: D form. Cit = NC(=O)NCCC[C@H](N)C(=O)O; Tle = CC(C)(C)[C@H](N)C(=O)O
Tests used:
[1] = biological target: T1, NPR-B (Mus musculus, UniProt Q6VVW5); test: stimulation of cGMP production in NIH3T3 cells; assay type: cell-based, murine; details: for cGMP Response rel. to 1 uM CNP22, 10 nM: NIH3T3 cells exposed to 10 nM peptide; for cGMP Response rel. to 1 uM CNP22, 10 nM / cGMP Response rel. to 1 uM CNP22, 1 uM: normalized to cell number and cGMP production in the presence of 1 uM wtCNP22; for cGMP Response rel. to 1 uM CNP22, 1 uM: NIH3T3 cells exposed to 1 uM peptide
T1 construct: Murine NIH3T3 cells express endogenously the CNP signaling receptor, NPR-B; endogenous in cells; host or cells: NIH3T3
T1 sequence (Q6VVW5 17-1047): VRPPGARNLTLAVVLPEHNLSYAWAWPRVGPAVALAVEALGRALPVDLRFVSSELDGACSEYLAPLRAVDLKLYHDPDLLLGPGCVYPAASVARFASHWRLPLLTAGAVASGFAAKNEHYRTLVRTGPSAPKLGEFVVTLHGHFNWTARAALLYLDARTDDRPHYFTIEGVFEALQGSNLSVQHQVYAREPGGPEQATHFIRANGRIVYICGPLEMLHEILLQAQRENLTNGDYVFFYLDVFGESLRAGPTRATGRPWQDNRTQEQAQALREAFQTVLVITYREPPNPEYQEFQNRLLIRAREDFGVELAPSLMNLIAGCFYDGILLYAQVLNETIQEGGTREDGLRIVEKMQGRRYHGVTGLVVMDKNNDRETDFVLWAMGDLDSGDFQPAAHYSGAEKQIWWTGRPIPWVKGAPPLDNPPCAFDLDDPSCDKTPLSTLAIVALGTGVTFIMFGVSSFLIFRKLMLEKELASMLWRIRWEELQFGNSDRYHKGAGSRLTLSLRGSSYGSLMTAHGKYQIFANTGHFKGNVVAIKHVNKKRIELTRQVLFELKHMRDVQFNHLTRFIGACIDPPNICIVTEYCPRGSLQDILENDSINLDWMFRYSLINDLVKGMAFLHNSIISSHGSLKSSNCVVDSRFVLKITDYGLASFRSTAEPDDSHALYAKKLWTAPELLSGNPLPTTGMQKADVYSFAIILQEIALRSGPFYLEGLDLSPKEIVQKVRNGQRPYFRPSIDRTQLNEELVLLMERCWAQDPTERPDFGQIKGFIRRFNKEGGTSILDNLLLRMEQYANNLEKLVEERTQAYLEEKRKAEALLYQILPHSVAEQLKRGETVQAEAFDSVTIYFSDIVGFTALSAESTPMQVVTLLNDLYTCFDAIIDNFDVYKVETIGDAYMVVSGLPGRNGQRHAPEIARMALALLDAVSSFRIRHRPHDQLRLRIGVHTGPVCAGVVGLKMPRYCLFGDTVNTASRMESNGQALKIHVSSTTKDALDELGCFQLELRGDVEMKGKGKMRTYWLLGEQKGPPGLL
Description: To determine the functional activity of CNP variants, the production of cGMP was measured in NIH3T3 cells exposed to the CNP variants. Murine NIH3T3 cells express endogenously the CNP signaling receptor, NPR-B, which shares 98% protein sequence identity with human NPR-B. NIH3T3 cells were cultured in high glucose Dulbecco's Modified Eagle Medium supplemented with 10% fetal calf serum and antibiotics at 37° C. with 5% CO2). Twenty four to 48 hours prior to signaling, cells were passaged to 12-well plates with a density of 2-5×10^5 cells per well at the time of the assay. CNP variants were resuspended in 1 mM HCl to a stock concentration of 1 mg/mL (455 uM for wtCNP22) and subsequently diluted to a 30 uM working stock solution with phosphate-buffered saline (PBS). Ten-fold serial dilutions were prepared in phosphate-buffered saline. Culture medium was removed from the cells and replaced with 0.4 mL PBS/Dulbecco's modified Eagle medium (50/50, v/v) containing 0.75 mM isobutylmethylxanine. Plates were incubated at 37° C., 5% CO2 for 15 minutes before addition of 0.2 mL CNP variant in PBS and continued incubation at 37° C. for 15 minutes. Reactions were stopped by the addition of 0.2 mL lysis buffer supplied with the CatchPoint cGMP assay kit (Molecular Devices), and cGMP production was determined with the CatchPoint cGMP Assay (Molecular Devices). All stimulation experiments were performed in duplicate.
Tables 1-4 summarize the ability of CNP variants having backbone or side chain modifications, amino acid substitutions, N-terminal amino acid extensions, and/or N-terminal PEGylation, respectively, to stimulate cGMP production in NIH3T3 cells. In all four tables, the values for cGMP production in NIH3T3 cells exposed to 10 nM or 1 uM CNP variant are normalized to cell number and cGMP production in the presence of 1 uM wtCNP22.

[2] = biological target: Recombinant human NEP (Homo sapiens, UniProt P08473); test: in vitro NEP cleavage assay (disappearance of non-cleaved CNP variant)
Description: To determine the effects of amino acid substitutions, amino acid extensions, backbone modifications, side chain modifications and PEGylation on the susceptibility of CNP variants to neutral endopeptidase (NEP) cleavage, peptide cleavage assays were carried out using an in vitro assay that monitored disappearance of the non-cleaved CNP variant.
Recombinant human NEP (1 ug/mL final concentration) was added to 100 uM CNP variant diluted in 0.1 M Tris, pH 7. The reaction mixture was incubated at 37° C. for various periods of time, and the reaction was quenched with EDTA (10 mM final) followed by heat denaturation. The reaction mixture was reduced and then the reaction products were analyzed using HPLC and mass spectroscopy. The half-life of the CNP variant was calculated based on the disappearance of intact CNP variant over time.

Sequence of Recombinant human NEP (P08473 whole entry): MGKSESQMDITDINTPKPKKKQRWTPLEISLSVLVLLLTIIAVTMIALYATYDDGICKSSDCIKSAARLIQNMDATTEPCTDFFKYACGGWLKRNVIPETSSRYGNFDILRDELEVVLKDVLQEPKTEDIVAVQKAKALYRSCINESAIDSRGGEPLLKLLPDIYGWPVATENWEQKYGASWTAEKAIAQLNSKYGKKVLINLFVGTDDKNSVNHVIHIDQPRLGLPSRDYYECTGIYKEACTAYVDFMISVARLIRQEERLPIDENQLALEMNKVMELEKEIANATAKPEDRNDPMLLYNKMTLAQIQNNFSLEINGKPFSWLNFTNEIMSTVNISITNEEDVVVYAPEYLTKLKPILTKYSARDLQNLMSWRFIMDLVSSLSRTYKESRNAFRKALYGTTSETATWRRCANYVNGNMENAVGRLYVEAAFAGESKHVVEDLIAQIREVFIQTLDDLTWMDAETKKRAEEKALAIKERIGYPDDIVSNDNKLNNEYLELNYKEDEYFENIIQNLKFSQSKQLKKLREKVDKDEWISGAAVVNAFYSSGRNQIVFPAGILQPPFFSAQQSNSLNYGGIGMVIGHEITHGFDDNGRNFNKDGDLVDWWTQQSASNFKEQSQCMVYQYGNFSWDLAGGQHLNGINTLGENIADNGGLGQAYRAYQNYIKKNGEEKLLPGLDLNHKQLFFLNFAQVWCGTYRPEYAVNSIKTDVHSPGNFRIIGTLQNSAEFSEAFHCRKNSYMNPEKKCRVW

CC[C@H](C)[C@@H]1NC(=O)[C@H](CCCNC(=N)N)NC(=O)[C@H](CC(=O)O)NC(=O)[C@H](CC(C)C)NC(=O)[C@H](CCCCN)NC(=O)[C@H](CC(C)C)NC(=O)CNC(=O)[C@H](Cc2ccccc2)NC(=O)[C@@H](NC(=O)CNC(=O)[C@H](CCCNC(=N)N)NC(=O)[C@H](CO)NC(=O)[C@H](CC(C)C)NC(=O)CN)CSSC[C@@H](C(=O)O)NC(=O)CNC(=O)[C@H](CC(C)C)NC(=O)CNC(=O)[C@H](CO)NC(=O)[C@H](CCSC)NC(=O)[C@H](CO)NC(=O)[C@H](CCCNC(N)=O)NC1=O [Analog AF, CNP22, K4R, G15Cit] (H-GLSRGCFGLKLDRI[Cit]SMSGLGC-OH; disulfide 6-22)
cGMP Response rel. to 1 uM CNP22, 10 nM [1]: 1.4
cGMP Response rel. to 1 uM CNP22, 1 uM [1]: 2

CC[C@H](C)[C@@H]1NC(=O)[C@H](CCCNC(=N)N)NC(=O)[C@H](CC(=O)O)NC(=O)[C@H](CC(C)C)NC(=O)[C@H](CCCCN)NC(=O)[C@H](CC(C)C)NC(=O)CNC(=O)[C@H](Cc2ccccc2)NC(=O)[C@@H](NC(=O)CNC(=O)[C@H](CCCNC(=N)N)NC(=O)[C@H](CO)NC(=O)[C@H](CC(C)C)NC(=O)CN)CSSC[C@@H](C(=O)O)NC(=O)CNC(=O)[C@H](CC(C)C)NC(=O)CNC(=O)[C@H](CO)NC(=O)[C@H](CCSC)NC(=O)[C@H](CO)NC(=O)[C@H](CCCNC(=N)N)NC1=O [Analog AE, CNP22, K4R, G15R] (H-GLSRGCFGLKLDRIRSMSGLGC-OH; disulfide 6-22)
cGMP Response rel. to 1 uM CNP22, 10 nM [1]: 0.3
cGMP Response rel. to 1 uM CNP22, 1 uM [1]: 0.3

CC[C@H](C)[C@@H]1NC(=O)[C@H](CCCNC(=N)N)NC(=O)[C@H](CC(=O)O)NC(=O)[C@H](CC(C)C)NC(=O)[C@H](CCCCN)NC(=O)[C@H](CC(C)C)NC(=O)CNC(=O)[C@H](Cc2ccccc2)NC(=O)[C@@H](NC(=O)CNC(=O)[C@H](CCCCN)NC(=O)[C@H](CO)NC(=O)[C@H](CC(C)C)NC(=O)CNC(=O)[C@H](CCC(N)=O)NC(=O)[C@H](CCC(N)=O)NC(=O)[C@H](CC(N)=O)NC(=O)[C@H](C)NC(=O)CNC(=O)[C@H](Cc2c[nH]cn2)NC(=O)[C@@H](NC(=O)[C@H](CC(=O)O)NC(=O)[C@H](Cc2c[nH]cn2)NC(=O)[C@H](CCC(=O)O)NC(=O)[C@H](Cc2c[nH]cn2)NC(=O)[C@@H]2CCCN2C(=O)[C@H](Cc2c[nH]cn2)NC(=O)[C@H](Cc2c[nH]cn2)NC(=O)[C@H](C)NC(=O)CN)[C@@H](C)O)CSSC[C@@H](C(=O)O)NC(=O)CNC(=O)[C@H](CC(C)C)NC(=O)CNC(=O)[C@H](CO)NC(=O)[C@H](CCSC)NC(=O)[C@H](CO)NC(=O)CNC1=O [Analog CR] (H-GAHHPHEHDTHGANQQGLSKGCFGLKLDRIGSMSGLGC-OH; disulfide 22-38; N-terminus and C-terminus assumed)
cGMP Response rel. to 1 uM CNP22, 10 nM [1]: 14 ± 5
cGMP Response rel. to 1 uM CNP22, 1 uM [1]: 77 ± 12

CC[C@H](C)[C@@H]1NC(=O)[C@H](CCCNC(=N)N)NC(=O)[C@H](CC(=O)O)NC(=O)[C@H](CC(C)C)NC(=O)[C@H](CCCCN)NC(=O)[C@H](CC(C)C)NC(=O)[C@H](C(C)(C)C)NC(=O)[C@H](Cc2ccccc2)NC(=O)[C@@H](NC(=O)CNC(=O)[C@H](CCCCN)NC(=O)[C@H](CO)NC(=O)[C@H](CC(C)C)NC(=O)CN)CSSC[C@@H](C(=O)O)NC(=O)CNC(=O)[C@H](CC(C)C)NC(=O)CNC(=O)[C@H](CO)NC(=O)[C@H](CCSC)NC(=O)[C@H](CO)NC(=O)CNC1=O [Analog F] (H-GLSKGCF[Tle]LKLDRIGSMSGLGC-OH; disulfide 6-22)
resistance to cleavage at the Cys6-Phe7 bond relative to wtCNP22 [2]: resistance or improved resistance

PEG2K-CNP22: CNP22 conjugated at the N-terminus to polydispersed PEG2K
NEP Cleavage (t1/2, min) ([2]; pH 7): >>160 min

SPKMVQGSG-CNP17-KVLRRH (SPKMVQGSGCFGLKLDRIGSMSGLGCKVLRRH; disulfide 10-26 (inferred); ends not checked) [Analog CD]
NPR-B stimulation activity / cGMP production compared with wtCNP22 (in words) ([1]; NIH3T3 cells): comparable NPR-B stimulation activity as wtCNP22

CC[C@H](C)[C@@H]1NC(=O)[C@H](CCCNC(=N)N)NC(=O)[C@H](CC(=O)O)NC(=O)[C@H](CC(C)C)NC(=O)[C@H](CCCCN)NC(=O)[C@H](CC(C)C)NC(=O)CNC(=O)[C@H](Cc2ccccc2)NC(=O)[C@@H](NC(=O)CNC(=O)[C@H](CCCNC(=N)N)NC(=O)[C@H](CO)NC(=O)[C@H](CC(C)C)NC(=O)CN)CSSC[C@@H](C(=O)O)NC(=O)CNC(=O)[C@H](CC(C)C)NC(=O)CNC(=O)[C@H](CO)NC(=O)[C@H](C(C)C)NC(=O)[C@H](CO)NC(=O)CNC1=O [Analog AG, CNP22, K4R, M17V] (H-GLSRGCFGLKLDRIGSVSGLGC-OH; disulfide 6-22)
cGMP Response rel. to 1 uM CNP22, 10 nM [1]: 10
cGMP Response rel. to 1 uM CNP22, 1 uM [1]: 65

DLRVDTKSRAAWARLLQEHPNARKYKGANKKGLSKGCFGLKLDRIGSMSGLGC (disulfide 37-53) [Analog BM, reference compound]
resistance to NEP cleavage (in words) [2]: resistant to NEP degradation

CC[C@H](C)[C@@H]1NC(=O)[C@H](CCCNC(=N)N)NC(=O)[C@H](CC(=O)O)NC(=O)[C@H](CC(C)C)NC(=O)[C@H](CCCCN)NC(=O)[C@H](CC(C)C)NC(=O)CNC(=O)[C@H](Cc2ccccc2)NC(=O)[C@@H](NC(=O)CNC(=O)[C@H](CCCNC(=N)N)NC(=O)[C@H](CO)NC(=O)[C@H](CC(C)C)NC(=O)CNC(=O)[C@H](CCCNC(=N)N)NC(=O)[C@H](CCCNC(=N)N)NC(=O)[C@H](CC(N)=O)NC(=O)[C@H](C)NC(=O)CN)CSSC[C@@H](C(=O)O)NC(=O)CNC(=O)[C@H](CC(C)C)NC(=O)CNC(=O)[C@H](CO)NC(=O)[C@H](CCSC)NC(=O)[C@H](CO)NC(=O)CNC1=O [Analog AY] (H-GANRRGLSRGCFGLKLDRIGSMSGLGC-OH; disulfide 11-27)
resistance to NEP cleavage (in words) [2]: same lability to NEP hydrolysis as CNP22
